Laboratory results published in US12527849B2, “Apparatus for determining administration form of a composition of an engineered virus-based nanoparticle for a treatment of an autoimmune condition” (Diamante Srl, priority 2021, dated 2026).

What was measured:
TNF-α = assay: Pro-inflammatory cytokines in sera of CIA Collagen mice (ELISA, day 58): TNF-α; format: in vivo; details: Dexamethasone oral 1 mg/kg, 20 times between day 28 and 57
Experimental: Critical administration 124 disclosed herein is further described below. Q5D represents administration 5 days a part. TBSV·pLIp1 and wt TBSV shown in Table 1 may include liquid form that are not sterile and stored in −20° C. TBSV·pLIp1 may be given at the dose of 50 μG/100 μL Male DBA/1J mice (8 weeks; Envigo, Italy) may be used for these studies. Mice may be housed in individual cages (two for each group) and maintained under a 12:12 light-dark cycle at 21° C.±1° C. and 50%±5% humidity. The animals may be acclimated to their environment for 1 week and had ad libitum access to tap water and standard rodent diet. All animal experiments may be complied with regulations in Italy (D.M. 116192), Europe (O.J of E.C. L 358/112/18/1986), and the United States (Animal Welfare Assurance Number A5594-01, Department of Health and Human Services, USA). […] Arthritis was assessed by using qualitative severity score system and hind paw volume (mL) measured by a plethysmometer on day 20, 22, 24, 26, 28, 30, 32, 34, 36, 38, 40, 42, 44, 46 48, 50, 52, 54, 56 and 58. Body weight was recorded on day 0, 6, 13, 16, 18, 20, 22, 24, 26, 28, 30, 32, 34, 36, 38, 40, 42, 44, 46, 50, 52, 54, 56 and 58. […]

CD25+ Foxp3+ cells = assay: Percentage of CD25+ Foxp3+ cells in lymph nodes of CIA mice; format: in vivo; details: day 60 after immunization, i.p. treatment, mean (SEM), n=3
Text: With continued reference to FIG. 1, in some embodiments, administration 116 may be done to an animal. As a non-limiting example, the animal may include a mouse, a fish, a rabbit, human, and the like. As a non-limiting example, administration 116 of composition of the engineered virus-based nanoparticle for a treatment of an autoimmune condition may be done to dilute, brown, and non-agouti (DBA) mice based on their susceptibility to collagen-induced arthritis (CIA). Female DBA/1 mice 6 to 8 weeks of age may be maintained under specific pathogen-free conditions. CIA may be induced by the intradermal tail base injection of 100 μg of chicken type II collagen (Sigma-Aldrich) as previously described. […] CIA may be assessed using a macroscopic score system based on the visual identification of arthritic limbs. The clinical severity of arthritis may be evaluated as follows: Each mouse may be inspected every 2 to 3 days for three different parameters: (i) swelling of the hind ankle and foot, measured with calipers; (ii) erythema of each leg; and (iii) swelling of the fingers. The RA index for each mouse was expressed as the mean of the three scores from the individual parameters. At the end of the experiment (60 days), we determined the proportion of CD25+Foxp3+ cells in the lymph nodes and measured cytokine titers in the lymph nodes, joints, and serum. […]

C[C@@H]1C[C@H]2[C@@H]3CCC4=CC(=O)C=C[C@]4(C)[C@@]3(F)[C@@H](O)C[C@]2(C)[C@@]1(O)C(=O)CO [Dexamethasone, dexamethasone]
TNF-α, % of reduction vs CIA Collagen (TNF-α): 12.02%
% CD25^+/Foxp3^+ (CD25+ Foxp3+ cells): 3.26 (0.84) %
